Experimental data as given in US20140135357A1, “DOSE REGIME FOR CAMPTOTHECIN DERIVATIVES” (Taiwan Liposome Company, Ltd., priority 2012, published 2014).

Assay: Phase I clinical trial: pharmacokinetic analysis of TLC388HCl diastereomers and metabolites after IV infusion
[1] = Day 1, dose group 1.5 mg/m^2 TLC388HCl, Mean (SD)
[2] = Day 1, dose group 3.0 mg/m^2 TLC388HCl, Mean (SD)
[3] = Day 1, dose group 6.0 mg/m^2 TLC388HCl, Mean (SD)
[4] = Day 1, dose group 9.0 mg/m^2 TLC388HCl, Mean (SD)
[5] = Day 1, dose group 20.0 mg/m^2 TLC388HCl, Mean (SD)
[6] = Day 1, dose group 30.0 mg/m^2 TLC388HCl, Mean (SD)
[7] = Day 1, dose group 35.0 mg/m^2 TLC388HCl, Mean (SD)
[8] = Day 1, dose group 40.0 mg/m^2 TLC388HCl, Mean (SD)
[9] = Day 1, dose group 50.0 mg/m^2 TLC388HCl, Mean (SD)
[10] = Day 1, dose group 60.0 mg/m^2 TLC388HCl, Mean (SD)
[11] = Day 8, dose group 1.5 mg/m^2 TLC388HCl, Mean (SD)
[12] = Day 8, dose group 3.0 mg/m^2 TLC388HCl, Mean (SD)
[13] = Day 8, dose group 6.0 mg/m^2 TLC388HCl, Mean (SD)
[14] = Day 8, dose group 9.0 mg/m^2 TLC388HCl, Mean (SD)
[15] = Day 8, dose group 20.0 mg/m^2 TLC388HCl, Mean (SD)
[16] = Day 8, dose group 30.0 mg/m^2 TLC388HCl, Mean (SD)
[17] = Day 8, dose group 35.0 mg/m^2 TLC388HCl, Mean (SD)
[18] = Day 8, dose group 40.0 mg/m^2 TLC388HCl, Mean (SD)
[19] = Day 8, dose group 50.0 mg/m^2 TLC388HCl, Mean (SD)
[20] = Day 8, dose group 60.0 mg/m^2 TLC388HCl, Mean (SD)
[21] = patients treated with 60 mg/m^2 of TLC388HCl (N = 6)

In the case of `CCC1(OC(=O)C(C)ON=C2c3cc([N+](=O)[O-])cc([N+](=O)[O-])c3-c3c2cc([N+](=O)[O-])cc3[N+](=O)[O-])C(=O)OCc2c1cc1n(c2=O)Cc2cc3c(CN(C)C)c(O)ccc3nc2-1.Cl` (stereo not drawn) [S,R TLC388HCl], the “difference between PK profiles on Day 1 and Day 8” value (Cycle 1) is reported as “no significant difference”, the AUC0-t [1] is reported as 1.646 ng·h/mL and the Cmax [1] is reported as 3.188 ng/mL. The Tmax [1] was 0.606 (0.106) hr, the t1/2 [1] was 2.603 (3.591) hr and the AUC0-t [2] was 4.728 ng·h/mL. For the same compound, the Cmax [2] was 2.743 ng/mL, the Tmax [2] was 0.933 (0.936) hr and the AUC0-t [3] was 1.564 ng·h/mL. For the same compound, the Cmax [3] was 4.073 ng/mL, the Tmax [3] was 0.467 (0.209) hr and the AUC0-t [4] was 0.821 ng·h/mL. For the same compound, the Cmax [4] was 2.196 ng/mL, the Tmax [4] was 0.354 (0.209) hr and the t1/2 [4] was 0.197 (0.218) hr. The AUC0-t [5] was 8.671 ng·h/mL, the Cmax [5] was 29.303 ng/mL and the Tmax [5] was 0.250 (0.000) hr. The t1/2 [5] was 2.828 (4.510) hr, the AUC0-t [6] was 3.624 ng·h/mL and the Cmax [6] was 12.930 ng/mL. For the same compound, the Tmax [6] was 0.396 (0.292) hr, the t1/2 [6] was 0.258 (0.271) hr and the AUC0-t [7] was 138.61 ng·h/mL. For the same compound, the Cmax [7] was 263.58 ng/mL, the Tmax [7] was 0.709 (0.083) hr and the t1/2 [7] was 3.030 (1.537) hr. For the same compound, the AUC0-t [8] was 10.818 ng·h/mL, the Cmax [8] was 28.259 ng/mL and the Tmax [8] was 0.415 (0.152) hr. The t1/2 [8] was 0.460 (0.772) hr, the AUC0-t [9] was 14.387 ng·h/mL and the Cmax [9] was 43.180 ng/mL. The Tmax [9] was 0.403 (0.143) hr, the t1/2 [9] was 0.483 (0.334) hr and the AUC0-t [10] was 11.285 ng·h/mL. The Cmax [10] was 63.194 ng/mL, the Tmax [10] was 0.357 (0.148) hr and the t1/2 [10] was 0.639 (0.425) hr. For the same compound, the AUC0-t [11] was 0.449 ng·h/mL, the Cmax [11] was 0.916 ng/mL and the Tmax [11] was 0.489 (0.215) hr. For the same compound, the t1/2 [11] was 0.087 h, the AUC0-t [12] was 0.574 ng·h/mL and the Cmax [12] was 1.811 ng/mL. For the same compound, the Tmax [12] was 0.350 (0.173) hr, the t1/2 [12] was 0.050 (0.008) hr and the AUC0-t [13] was 2.190 ng·h/mL. The Cmax [13] was 8.287 ng/mL, the Tmax [13] was 0.467 (0.209) hr and the t1/2 [13] was 0.072 h. The AUC0-t [14] was 5.396 ng·h/mL, the Cmax [14] was 3.325 ng/mL and the Tmax [14] was 2.408 (3.729) hr. The t1/2 [14] was 0.133 (0.084) hr, the AUC0-t [15] was 4.707 ng·h/mL and the Cmax [15] was 15.753 ng/mL. For the same compound, the Tmax [15] was 0.328 (0.135) hr, the t1/2 [15] was 0.115 (0.064) hr and the AUC0-t [16] was 18.892 ng·h/mL. The Cmax [16] was 38.413 ng/mL, the Tmax [16] was 0.512 (0.240) hr and the t1/2 [16] was 0.202 (0.242) hr. For the same compound, the AUC0-t [17] was 139.26 ng·h/mL, the Cmax [17] was 403.60 ng/mL and the Tmax [17] was 0.621 (0.141) hr. For the same compound, the t1/2 [17] was 3.329 (2.590) hr, the AUC0-t [18] was 34.254 ng·h/mL and the Cmax [18] was 76.660 ng/mL. For the same compound, the Tmax [18] was 0.303 (0.113) hr, the t1/2 [18] was 0.411 (0.676) hr and the AUC0-t [19] was 39.251 ng·h/mL. The Cmax [19] was 97.288 ng/mL, the Tmax [19] was 0.297 (0.104) hr and the t1/2 [19] was 0.764 (1.045) hr. The AUC0-t [20] was 13.377 ng·h/mL, the Cmax [20] was 47.340 ng/mL and the Tmax [20] was 0.450 (0.115) hr. For the same compound, the t1/2 [20] was 1.416 (1.169) hr, the “Dose-normalized AUClast” value [21] was 0.82 ± 1.92 nM*h/(mg/m^2) and the “Dose-normalized Cmax” value [21] was 1.63 ± 3.77 nM/(mg/m^2). The Tmax [21] was 0.47 ± 0.30 h, the t1/2 [21] was 1.08 ± 1.77 h and the half-life (plasma, after IV administration of TLC388HCl composition) was “a few minutes”.
